Test results taken from publication PMC10586084 (Journal of Enzyme Inhibition and Medicinal Chemistry, 2023).

Legend:
Format in all cases: biochemical
[1] = molecular target: hCA I (Homo sapiens, UniProt P00915); assay: stopped-flow CO2 hydrase assay, hCA I; conditions: stopped flow technique, mean from three assays
[2] = molecular target: hCA IV (Homo sapiens, UniProt P22748); assay: stopped-flow CO2 hydrase assay, hCA IV; conditions: stopped flow technique, mean from three assays
[3] = molecular target: hCA II (Homo sapiens, UniProt P00918); assay: stopped-flow CO2 hydrase assay, hCA II; conditions: stopped flow technique, mean from three assays
[4] = molecular target: hCA XII (Homo sapiens, UniProt O43570); assay: stopped-flow CO2 hydrase assay, hCA XII; conditions: for Ki: KI hCA XII, stopped flow technique, mean from three assays; for Selectivity index I/XII: ratio KI hCA I / KI hCA XII; for Selectivity index II/XII: ratio KI hCA II / KI hCA XII; for Selectivity index IV/XII: ratio KI hCA IV / KI hCA XII
Sequence of hCA XII (O43570 25-354): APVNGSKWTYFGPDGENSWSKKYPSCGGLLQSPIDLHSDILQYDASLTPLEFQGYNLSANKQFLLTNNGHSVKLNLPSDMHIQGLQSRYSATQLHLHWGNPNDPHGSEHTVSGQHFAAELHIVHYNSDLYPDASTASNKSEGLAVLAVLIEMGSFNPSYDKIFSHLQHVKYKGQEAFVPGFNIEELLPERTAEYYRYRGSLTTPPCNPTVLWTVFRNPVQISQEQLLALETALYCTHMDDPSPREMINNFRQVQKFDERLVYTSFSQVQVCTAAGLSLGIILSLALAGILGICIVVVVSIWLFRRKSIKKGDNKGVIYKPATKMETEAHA

[5] = molecular target: hCA IX (Homo sapiens, UniProt Q16790); assay: biochemical; conditions: for Ki: KI hCA IX, stopped flow technique, mean from three assays; for Selectivity index I/IX: ratio KI hCA I / KI hCA IX; for Selectivity index II/IX: ratio KI hCA II / KI hCA IX; for Selectivity index IV/IX: ratio KI hCA IV / KI hCA IX

Sequence of hCA IV (P22748 19-284 limits assumed): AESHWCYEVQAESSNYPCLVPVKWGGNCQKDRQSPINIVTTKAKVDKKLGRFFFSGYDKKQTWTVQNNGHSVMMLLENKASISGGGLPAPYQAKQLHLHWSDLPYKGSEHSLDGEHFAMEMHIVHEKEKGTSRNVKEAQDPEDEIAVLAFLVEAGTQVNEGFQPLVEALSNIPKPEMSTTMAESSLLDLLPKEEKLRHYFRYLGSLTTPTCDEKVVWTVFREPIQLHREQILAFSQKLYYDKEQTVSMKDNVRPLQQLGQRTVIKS
Sequence of hCA I (P00915 whole entry): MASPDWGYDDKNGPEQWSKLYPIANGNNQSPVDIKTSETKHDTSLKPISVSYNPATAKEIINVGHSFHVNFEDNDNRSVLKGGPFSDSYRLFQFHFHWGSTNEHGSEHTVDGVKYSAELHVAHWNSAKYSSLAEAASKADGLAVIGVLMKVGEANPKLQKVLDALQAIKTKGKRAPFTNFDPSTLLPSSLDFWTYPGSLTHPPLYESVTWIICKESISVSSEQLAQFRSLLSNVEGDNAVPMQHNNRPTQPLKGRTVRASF

Structure (SMILES)	Ki [1]	Ki [2]	Ki [3]	Ki [4]	Selectivity index I/XII [4]	Selectivity index II/XII [4]	Selectivity index IV/XII [4]	Ki [5]	Selectivity index I/IX [5]	Selectivity index II/IX [5]	Selectivity index IV/IX [5]
NS(=O)(=O)c1ccc(Nc2nc3nccc(-c4ccccc4[N+](=O)[O-])n3n2)cc1 [Compound 1s, 4-((7-(2-Nitrophenyl)-[1,2,4]triazolo[1,5-a]pyrimidin-2-yl)amino)benzenesulfonamide]	8450 nM	3980 nM	77.1 nM	48.9 nM	173	1.6	81.4	20.4 nM	414	3.8	195
NS(=O)(=O)c1ccc(Nc2nc3nccc(-c4cccc(F)c4)n3n2)cc1 [Compound 1g, 4-((7-(3-Fluorophenyl)-[1,2,4]triazolo[1,5-a]pyrimidin-2-yl)amino)benzenesulfonamide]	551 nM	853 nM	45.9 nM	42.6 nM	12.9	1.1	20.0	22.4 nM	24.6	2.0	38.1
Cc1ccccc1-c1ccnc2nc(Nc3ccc(S(N)(=O)=O)cc3)nn12 [Compound 1v, 4-((7-(o-Tolyl)-[1,2,4]triazolo[1,5-a]pyrimidin-2-yl)amino)benzenesulfonamide]	2680 nM	8820 nM	42.8 nM	30.4 nM	88.1	1.4	290	4.7 nM	570	9.1	1877
NS(=O)(=O)c1ccc(Nc2nc3nccc(-c4ccc([N+](=O)[O-])cc4)n3n2)cc1 [Compound 1q, 4-((7-(4-Nitrophenyl)-[1,2,4]triazolo[1,5-a]pyrimidin-2-yl)amino)benzenesulfonamide]	4290 nM	3260 nM	86.3 nM	42.1 nM	102	2.0	77.4	69.4 nM	61.8	1.2	46.9
NS(=O)(=O)c1ccc(Nc2nc3nccc(-c4ccc(I)cc4)n3n2)cc1 [Compound 1p, 4-((7-(4-Iodophenyl)-[1,2,4]triazolo[1,5-a]pyrimidin-2-yl)amino)benzenesulfonamide]	7630 nM	8850 nM	559 nM	39 nM	196	14.3	227	95.7 nM	79.7	5.8	92.5
Cc1ccc(-c2ccnc3nc(Nc4ccc(S(N)(=O)=O)cc4)nn23)cc1 [Compound 1t, 4-((7-(p-Tolyl)-[1,2,4]triazolo[1,5-a]pyrimidin-2-yl)amino)benzenesulfonamide]	1470 nM	2290 nM	64 nM	61.2 nM	24.0	1.0	37.4	41.5 nM	35.5	1.5	55.1
NS(=O)(=O)c1ccc(Nc2nc3nccc(-c4ccc(F)cc4)n3n2)cc1 [Compound 1f, 4-((7-(4-Fluorophenyl)-[1,2,4]triazolo[1,5-a]pyrimidin-2-yl)amino)benzenesulfonamide]	763 nM	993 nM	82.7 nM	62.4 nM	12.2	1.3	15.9	28.8 nM	26.5	2.9	34.5
CCOc1ccc(-c2ccnc3nc(Nc4ccc(S(N)(=O)=O)cc4)nn23)cc1 [Compound 1z, 4-((7-(4-Ethoxyphenyl)-[1,2,4]triazolo[1,5-a]pyrimidin-2-yl)amino)benzenesulfonamide]	2260 nM	3650 nM	69.3 nM	55.2 nM	40.9	1.2	66.1	43.5 nM	51.9	1.6	83.9
NS(=O)(=O)c1ccc(Nc2nc3nccc(-c4cccnc4)n3n2)cc1 [Compound 1d, 4-((7-(Pyridin-3-yl)-[1,2,4]triazolo[1,5-a]pyrimidin-2-yl)amino)benzenesulfonamide]	602 nM	333 nM	24.8 nM	8.8 nM	–	–	–	5.1 nM	–	–	–
NS(=O)(=O)c1ccc(Nc2nc3nccc(-c4ccc(Cl)cc4)n3n2)cc1 [Compound 1k, 4-((7-(4-Chlorophenyl)-[1,2,4]triazolo[1,5-a]pyrimidin-2-yl)amino)benzenesulfonamide]	2250 nM	4000 nM	62.4 nM	29.2 nM	77.1	2.1	137	74.1 nM	30.4	0.8	53.9
NS(=O)(=O)c1ccc(Nc2nc3nccc(-c4ccccc4)n3n2)cc1 [Compound 1a, 4-((7-Phenyl-[1,2,4]triazolo[1,5-a]pyrimidin-2-yl)amino)benzenesulfonamide]	841 nM	1330 nM	75.3 nM	71.7 nM	11.7	1.0	18.5	33.2 nM	25.3	2.3	39.9
COc1ccc(-c2ccnc3nc(Nc4ccc(S(N)(=O)=O)cc4)nn23)cc1OC [Compound 1ab, 4-((7-(3,4-Dimethoxyphenyl)-[1,2,4]triazolo[1,5-a]pyrimidin-2-yl)amino)benzenesulfonamide]	993 nM	1520 nM	95.2 nM	9 nM	110	10.6	169	35.8 nM	27.7	2.6	42.4
Cc1cccc(-c2ccnc3nc(Nc4ccc(S(N)(=O)=O)cc4)nn23)c1 [Compound 1u, 4-((7-(m-Tolyl)-[1,2,4]triazolo[1,5-a]pyrimidin-2-yl)amino)benzenesulfonamide]	1400 nM	4850 nM	55.2 nM	70.2 nM	20.0	0.8	69.0	26.2 nM	53.5	2.1	185
COc1ccc(-c2ccnc3nc(Nc4ccc(S(N)(=O)=O)cc4)nn23)cc1 [Compound 1w, 4-((7-(4-Methoxyphenyl)-[1,2,4]triazolo[1,5-a]pyrimidin-2-yl)amino)benzenesulfonamide]	1630 nM	2000 nM	89.6 nM	39.8 nM	40.9	2.2	50.3	50.8 nM	32.0	1.8	39.4
NS(=O)(=O)c1ccc(Nc2nc3nccc(-c4c(F)cccc4F)n3n2)cc1 [Compound 1i, 4-((7-(2,6-Difluorophenyl)-[1,2,4]triazolo[1,5-a]pyrimidin-2-yl)amino)benzenesulfonamide]	743 nM	703 nM	17.6 nM	22.5 nM	33	0.8	31.2	21.9 nM	33.9	0.8	32.1
NS(=O)(=O)c1ccc(Nc2nc3nccc(-c4cccc([N+](=O)[O-])c4)n3n2)cc1 [Compound 1r, 4-((7-(3-Nitrophenyl)-[1,2,4]triazolo[1,5-a]pyrimidin-2-yl)amino)benzenesulfonamide]	3470 nM	690 nM	48 nM	4.3 nM	806	11.2	160	49.9 nM	69.5	1.0	13.8
NS(=O)(=O)c1ccc(Nc2nc3nccc(-c4cccs4)n3n2)cc1 [Compound 1b, 4-((7-(Thiophen-2-yl)-[1,2,4]triazolo[1,5-a]pyrimidin-2-yl)amino)benzenesulfonamide]	501 nM	2660 nM	98.2 nM	66.9 nM	7.5	1.5	39.7	49.5 nM	10.1	2.0	53.7
